Experimental data published in PubChem BioAssay AID248 (DTP/NCI, 2004).
Toxic doses and inconclusive results are not listed.

Test system: L1210 leukemia ip in BDF1 mice, survival T/C
Assay: NCI In Vivo Anticancer Drug Screen. Data for tumor model L1210 Leukemia (intraperitoneal) in B6D2F1 (BDF1) mice
Settings: endpoint: mean survival time, higher = longer survival
Procedure, shortened: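 Each compound was tested against a transplantable tumor grown in mice. The endpoint was survival, with treated animals benchmarked against vehicle controls as a simple ratio.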

[1] = dose: 100.0 mg/kg/injection, schedule: Q01DX001 (ip), vehicle: saline with Tween-80
[2] = dose: 200.0 mg/kg/injection, schedule: Q01DX001 (ip), vehicle: saline with Tween-80
[3] = dose: 100.0 mg/kg/injection, schedule: Q01DX009 (ip), vehicle: Klucel (hydroxypropylcellulose) (HPC)
[4] = dose: 200.0 mg/kg/injection, schedule: Q01DX009 (ip), vehicle: Klucel (hydroxypropylcellulose) (HPC)
[5] = dose: 400.0 mg/kg/injection, schedule: Q01DX001 (ip), vehicle: carboxymethylcellulose (CMC)

## O=C(NCCCCCCCCNC(=O)Nc1ccc(C2=NCCN2)cc1)Nc1ccc(C2=NCCN2)cc1
dose: 25.0 mg/kg/injection, schedule: Q01DX Z (ip), vehicle: carboxymethylcellulose (CMC)
  T/C: 117 % of control
dose: 62.0 mg/kg/injection, schedule: Q01DX Z (ip), vehicle: carboxymethylcellulose (CMC)
  T/C: 151 % of control
dose: 62.0 mg/kg/injection, schedule: Q01DX Z (oral), vehicle: carboxymethylcellulose (CMC)
  T/C: 103 % of control
dose: 100.0 mg/kg/injection, schedule: Q01DX Z (ip), vehicle: carboxymethylcellulose (CMC)
  T/C: 187 % of control
dose: 125.0 mg/kg/injection, schedule: Q01DX Z (ip), vehicle: carboxymethylcellulose (CMC)
  T/C: 157 % of control
dose: 125.0 mg/kg/injection, schedule: Q01DX Z (oral), vehicle: carboxymethylcellulose (CMC)
  T/C: 111 % of control
dose: 150.0 mg/kg/injection, schedule: Q01DX Z (ip), vehicle: carboxymethylcellulose (CMC)
  T/C: 213 % of control
dose: 250.0 mg/kg/injection, schedule: Q01DX Z (ip), vehicle: carboxymethylcellulose (CMC)
  T/C: 114 % of control
dose: 250.0 mg/kg/injection, schedule: Q01DX Z (oral), vehicle: carboxymethylcellulose (CMC)
  T/C: 109 % of control
dose: 500.0 mg/kg/injection, schedule: Q01DX Z (oral), vehicle: carboxymethylcellulose (CMC)
  T/C: 120 % of control

## CN(C(=O)C(=O)N(C)S(=O)(=O)c1ccccc1)S(=O)(=O)c1ccccc1
dose: 100.0 mg/kg/injection, schedule: Q01DX001 (ip), vehicle: Klucel (hydroxypropylcellulose) (HPC)
  T/C: 101 % of control
dose: 200.0 mg/kg/injection, schedule: Q01DX001 (ip), vehicle: Klucel (hydroxypropylcellulose) (HPC)
  T/C: 97 % of control
dose: 400.0 mg/kg/injection, schedule: Q01DX001 (ip), vehicle: Klucel (hydroxypropylcellulose) (HPC)
  T/C: 90 % of control

## O=c1[nH]nnc2nc(CCCc3ccccc3)[nH]c12
[1]
  T/C: 98 % of control
[2]
  T/C: 111 % of control
dose: 400.0 mg/kg/injection, schedule: Q01DX001 (ip), vehicle: saline with Tween-80
  T/C: 104 % of control

## Nc1nnc(N)c2nc(-c3ccccc3)c(-c3ccccc3)nc12
[3]
  T/C: 101 % of control
[4]
  T/C: 101 % of control

## CCN(CC)CC(O)c1ccnc2c(N)cc(OC)cc12 (centres undefined)
dose: 75.0 mg/kg/injection, schedule: Q01DX001 (ip), vehicle: acetone
  T/C: 104 % of control
dose: 150.0 mg/kg/injection, schedule: Q01DX001 (ip), vehicle: acetone
  T/C: 101 % of control

## CCOC(=O)c1cc2c3n(c1=O)CCCC3C(c1ccccn1)OC2=O (centres undefined)
dose: 100.0 mg/kg/injection, schedule: Q01DX001 (ip), vehicle: saline
  T/C: 92 % of control
dose: 200.0 mg/kg/injection, schedule: Q01DX001 (ip), vehicle: saline
  T/C: 98 % of control
dose: 400.0 mg/kg/injection, schedule: Q01DX001 (ip), vehicle: saline
  T/C: 103 % of control

## O=c1cc(CBr)c2ccccc2[nH]1
dose: 5.0 mg/kg/injection, schedule: Q01DX001 (ip), vehicle: saline
  T/C: 100 % of control
dose: 6.25 mg/kg/injection, schedule: Q01DX009 (ip), vehicle: saline with Tween-80
  T/C: 105 % of control
dose: 10.0 mg/kg/injection, schedule: Q01DX001 (ip), vehicle: saline
  T/C: 94 % of control
dose: 12.5 mg/kg/injection, schedule: Q01DX009 (ip), vehicle: saline with Tween-80
  T/C: 90 % of control
dose: 20.0 mg/kg/injection, schedule: Q01DX001 (ip), vehicle: saline
  T/C: 100 % of control
dose: 40.0 mg/kg/injection, schedule: Q01DX001 (ip), vehicle: saline
  T/C: 103 % of control
dose: 80.0 mg/kg/injection, schedule: Q01DX001 (ip), vehicle: saline
  T/C: 97 % of control

## C(=N/Nc1ccccn1)/c1cccnc1
[1]
  T/C: 112 % of control

## O=C(Nc1ccccc1F)OC/C=C/c1ccccc1
[3]
  T/C: 104 % of control
[4]
  T/C: 97 % of control
dose: 400.0 mg/kg/injection, schedule: Q01DX009 (ip), vehicle: Klucel (hydroxypropylcellulose) (HPC)
  T/C: 95 % of control

## c1nc(SC2CCCC2)c2[nH]cnc2n1
dose: 5.0 mg/kg/injection, schedule: Q01DX Z (ip), vehicle: carboxymethylcellulose (CMC)
  T/C: 106 % of control
dose: 10.0 mg/kg/injection, schedule: Q01DX Z (ip), vehicle: carboxymethylcellulose (CMC)
  T/C: 103 % of control
dose: 10.0 mg/kg/injection, schedule: Q01DX Z (oral), vehicle: carboxymethylcellulose (CMC)
  T/C: 108 % of control
dose: 21.0 mg/kg/injection, schedule: Q01DX Z (ip), vehicle: carboxymethylcellulose (CMC)
  T/C: 112 % of control
dose: 21.0 mg/kg/injection, schedule: Q01DX Z (oral), vehicle: carboxymethylcellulose (CMC)
  T/C: 108 % of control
dose: 25.0 mg/kg/injection, schedule: Q01DX009 (ip), vehicle: carboxymethylcellulose (CMC)
  T/C: 115 % of control
dose: 42.0 mg/kg/injection, schedule: Q01DX Z (ip), vehicle: carboxymethylcellulose (CMC)
  T/C: 112 % of control
dose: 42.0 mg/kg/injection, schedule: Q01DX Z (oral), vehicle: carboxymethylcellulose (CMC)
  T/C: 106 % of control
dose: 42.5 mg/kg/injection, schedule: Q01DX Z (ip), vehicle: carboxymethylcellulose (CMC)
  T/C: 122 % of control
dose: 50.0 mg/kg/injection, schedule: Q01DX009 (ip), vehicle: carboxymethylcellulose (CMC)
  T/C: 119 % of control
dose: 84.0 mg/kg/injection, schedule: Q01DX Z (oral), vehicle: carboxymethylcellulose (CMC)
  T/C: 150 % of control
dose: 85.0 mg/kg/injection, schedule: Q01DX Z (ip), vehicle: carboxymethylcellulose (CMC)
  T/C: 163 % of control
dose: 176.0 mg/kg/injection, schedule: Q01DX001 (ip), vehicle: carboxymethylcellulose (CMC)
  T/C: 98 % of control
dose: 264.0 mg/kg/injection, schedule: Q01DX001 (ip), vehicle: carboxymethylcellulose (CMC)
  T/C: 100 % of control
dose: 340.0 mg/kg/injection, schedule: Q01DX Z (ip), vehicle: carboxymethylcellulose (CMC)
  T/C: 110 % of control
dose: 340.0 mg/kg/injection, schedule: Q01DX Z (oral), vehicle: carboxymethylcellulose (CMC)
  T/C: 152 % of control
[5]
  T/C: 93 % of control

## NS(=O)(=O)c1ccc(NC(=O)Nc2cc([N+](=O)[O-])ccc2F)cc1
dose: 100.0 mg/kg/injection, schedule: Q04DX003 (ip), vehicle: Klucel (hydroxypropylcellulose) (HPC)
  T/C: 98 % of control
dose: 200.0 mg/kg/injection, schedule: Q04DX003 (ip), vehicle: Klucel (hydroxypropylcellulose) (HPC)
  T/C: 95 % of control
dose: 400.0 mg/kg/injection, schedule: Q04DX003 (ip), vehicle: Klucel (hydroxypropylcellulose) (HPC)
  T/C: 87 % of control

## O=NN(CCCl)C(=O)Nc1cc(Cl)ccc1O
dose: 1.0 mg/kg/injection, schedule: Q01DX001 (ip), vehicle: carboxymethylcellulose (CMC)
  T/C: 116 % of control
dose: 2.0 mg/kg/injection, schedule: Q01DX001 (ip), vehicle: carboxymethylcellulose (CMC)
  T/C: 110 % of control
dose: 4.0 mg/kg/injection, schedule: Q01DX001 (ip), vehicle: carboxymethylcellulose (CMC)
  T/C: 116 % of control
dose: 44.0 mg/kg/injection, schedule: Q01DX009 (ip), vehicle: carboxymethylcellulose (CMC)
  T/C: 100 % of control
dose: 66.0 mg/kg/injection, schedule: Q01DX001 (ip), vehicle: carboxymethylcellulose (CMC)
  T/C: 111 % of control
dose: 66.0 mg/kg/injection, schedule: Q01DX009 (ip), vehicle: carboxymethylcellulose (CMC)
  T/C: 90 % of control
dose: 100.0 mg/kg/injection, schedule: Q01DX001 (ip), vehicle: carboxymethylcellulose (CMC)
  T/C: 114 % of control
dose: 100.0 mg/kg/injection, schedule: Q01DX009 (ip), vehicle: carboxymethylcellulose (CMC)
  T/C: 95 % of control
dose: 150.0 mg/kg/injection, schedule: Q01DX001 (ip), vehicle: carboxymethylcellulose (CMC)
  T/C: 111 % of control
dose: 200.0 mg/kg/injection, schedule: Q01DX001 (ip), vehicle: carboxymethylcellulose (CMC)
  T/C: 115 % of control
dose: 225.0 mg/kg/injection, schedule: Q01DX001 (ip), vehicle: carboxymethylcellulose (CMC)
  T/C: 123 % of control
[5]
  T/C: 116 % of control
dose: 800.0 mg/kg/injection, schedule: Q01DX001 (ip), vehicle: carboxymethylcellulose (CMC)
  T/C: 118 % of control

## C=CCOC(=O)CCl
dose: 55.0 mg/kg/injection, schedule: Q01DX Z (ip), vehicle: methylcellulose (MC)
  T/C: 87 % of control
[1]
  T/C: 92 % of control
[2]
  T/C: 98 % of control

## COC1OC(CNCCO)C2OC(C)(C)OC12 (centres undefined)
dose: 100.0 mg/kg/injection, schedule: Q01DX009 (ip), vehicle: saline
  T/C: 103 % of control
dose: 100.0 mg/kg/injection, schedule: Q04DX003 (ip), vehicle: saline
  T/C: 101 % of control
dose: 200.0 mg/kg/injection, schedule: Q01DX009 (ip), vehicle: saline
  T/C: 96 % of control
dose: 200.0 mg/kg/injection, schedule: Q04DX003 (ip), vehicle: saline
  T/C: 98 % of control
dose: 400.0 mg/kg/injection, schedule: Q01DX009 (ip), vehicle: saline
  T/C: 101 % of control
dose: 400.0 mg/kg/injection, schedule: Q04DX003 (ip), vehicle: saline
  T/C: 95 % of control

## COCCCCO
dose: 50.0 mg/kg/injection, schedule: Q01DX009 (ip), vehicle: saline with Tween-80
  T/C: 97 % of control
dose: 100.0 mg/kg/injection, schedule: Q01DX009 (ip), vehicle: saline with Tween-80
  T/C: 97 % of control
dose: 200.0 mg/kg/injection, schedule: Q01DX009 (ip), vehicle: saline with Tween-80
  T/C: 90 % of control
